Test results from patent US9211264B2, “Coated drug spheroids and uses thereof for eliminating or reducing conditions such as emesis and diarrhea” (Wyeth LLC, priority 2009, dated 2015).
Structures can show the parent of a compound that is named as a salt. Where two headings read alike, the source gives them in different places.

Key:
[1] = GI tolerability with and without concurrent ketoconazole (subjects reporting GI AEs); format: in vivo
Procedure: (§1) Exposure studies were performed to determine if gastrointestinal tolerability is related to systemic exposure of neratinib maleate.
Subjects Reporting GI AEs

[2] = Exposure study: neratinib pharmacokinetics with and without concurrent ketoconazole; settings: human, in vivo, 240 mg, 240 mg neratinib
Procedure: as §1

[3] = Gastrointestinal adverse events in single dose clinical studies of healthy subjects; format: in vivo, human; settings: 192 healthy subjects, five single doses
Description: In a clinical study, 192 healthy subjects were given five single doses of neratinib maleate. Adverse events were observed and classified as follows: • Grade 1 gastrointestinal adverse events (GI AEs) ˜25%40% • Grade 2 gastrointestinal adverse events (GI AEs) ˜15%
Grade 1 and 2 gastrointestinal adverse events predominated as the adverse events observed in clinical studies of healthy subjects.

[4] = Adverse events in multiple dose clinical studies of cancer patients; format: in vivo, human; settings: cancer patients (>400), single agent and combination
Description: Adverse events in clinical studies of cancer patients were observed and classified as follows: • Nausea, Vomiting, Diarrhea, Dehydration, Anorexia (˜95%) • Asthenia, Fatigue (˜30-60%) • Rash (˜20-25%) • Elevated ALT, AST (<10%)

Row | Compound | Subjects Reporting GI AEs: GI Disorders ([1]; 240 mg neratinib) | AUC(0-t) ([2]; geometric mean in brackets, read-out: AUC t [Geo mean]) | AUC(0-inf) ([2]; geometric mean in brackets, read-out: AUC∞ [Geo mean]) | Cmax ([2]; geometric mean in brackets, read-out: Cmax [Geo mean]) | AUC(0-t) ([2]; value outside brackets, read-out: AUC t) | AUC(0-inf) ([2]; value outside brackets, read-out: AUC∞) | Cmax ([2]; value outside brackets, read-out: Cmax) | Grade 2 gastrointestinal adverse events (GI AEs) [3] | GI tolerability (diarrhea) relation to systemic exposure ([1]; exposure studies with concurrent ketoconazole) | Asthenia, Fatigue [4] | Elevated ALT, AST [4] | Nausea, Vomiting, Diarrhea, Dehydration, Anorexia [4] | Rash [4]
1 | CCOc1cc2ncc(C#N)c(Nc3ccc(OCc4ccccn4)c(Cl)c3)c2cc1NC(=O)/C=C/CN(C)C [Neratinib, (E)-N-(4-(3-chloro-4-(pyridin-2-ylmethoxy)phenylamino)-3-cyano-7-ethoxyquinolin-6-yl)-4-(dimethylamino) but-2-enamide] | 31.8% | 0.727 µg·h/mL | 0.802 µg·h/mL | 0.0515 µg/mL | 0.835 µg·h/mL | 0.903 µg·h/mL | 0.0553 µg/mL | – | – | – | – | – | –
2 | CCOc1cc2ncc(C#N)c(Nc3ccc(OCc4ccccn4)c(Cl)c3)c2cc1NC(=O)/C=C/CN(C)C [neratinib maleate, (E)-N-(4-(3-chloro-4-(pyridin-2-ylmethoxy)phenylamino)-3-cyano-7-ethoxyquinolin-6-yl)-4-(dimethylamino) but-2-enamide] | – | – | – | – | – | – | – | ~15% | not related to systemic exposure | 30-60% | < 10% | ~95% | 20-25%
